Key:
[1] = system: Staphylococcus aureus 2999i+p+; experiment: in vitro antibacterial activity (MIC); assay type: cell-based
[2] = system: Serratia marcescens 344; experiment: in vitro antibacterial activity (MIC); assay type: cell-based
[3] = system: Streptococcus faecalis D 3; experiment: in vitro antibacterial activity (MIC); assay type: cell-based; settings: Enterococcus faecalis, D3
[4] = system: Escherichia coli 16; experiment: in vitro antibacterial activity (MIC); assay type: cell-based
[5] = system: Klebsiella pneumoniae 327; experiment: in vitro antibacterial activity (MIC); assay type: cell-based
[6] = system: Proteus rettgeri 856; experiment: in vitro antibacterial activity (MIC); assay type: cell-based; settings: Providencia rettgeri
[7] = system: Streptococcus pyogenes Aronson; experiment: in vivo systemic infection of mice
Source text: (§1) The compounds of the formula I have valuable pharmacological properties, or can be used as intermediates for the manufacture of such compounds having valuable pharmacological properties. Compounds of the formula I in which R1 represents hydrogen or methyl, R2 represents hydroxy, R3 represents carboxy, or an esterified carboxy group that can be cleaved under physiological conditions, and R4 has the meaning given under formula I, and pharmacologically acceptable salts of such compounds having salt-forming groups have anti-bacterial activity. For example, they are effective in vitro against gram-positive and gram-negative cocci, for example Staphylococcus aureus, Streptococcus pyogenes, Streptococcus pneumoniae, and Streptococcus faecalis, and against gram-negative rod-shaped bacilli, such as Enterobacteriaceae, Haemophilus influenzae and Pseudomonas aeruginosa, and anaerobes, for example Bacteroides sp., in minimum concentrations of from approximately 0.02 to approximately 64 μg/ml. In vivo, in the case of systemic infection of mice, for example by Staphylococcus aureus or Streptococcus pyogenes, on subcutaneous or oral administration of compounds of the invention ED50 values of from approximately 8.5 to approximately 100 mg/kg result.
(§2) In vivo in the systemic infection of mice, the following activity is found: […]

[8] = system: Escherichia coli 2018; experiment: in vivo systemic infection of mice
Source text: as §1, §2

[9] = system: Staphylococcus aureus 10 B; experiment: in vivo systemic infection of mice
Source text: as §1, §2

[10] = system: Streptococcus pyogenes Aronson; experiment: in vitro antibacterial activity (MIC); assay type: cell-based
[11] = system: Pseudomonas aeruginosa ATCC 12055; experiment: in vitro antibacterial activity (MIC); assay type: cell-based; settings: ATCC12055
[12] = system: Escherichia coli 205 R+TEM; experiment: in vitro antibacterial activity (MIC); assay type: cell-based
[13] = system: Proteus morganii 1518; experiment: in vitro antibacterial activity (MIC); assay type: cell-based; settings: Morganella morganii
[14] = system: Proteus mirabilis 1219; experiment: in vitro antibacterial activity (MIC); assay type: cell-based
[15] = system: Proteus mirabilis 774; experiment: in vitro antibacterial activity (MIC); assay type: cell-based
[16] = system: Proteus morganii 2359; experiment: in vitro antibacterial activity (MIC); assay type: cell-based; settings: Morganella morganii
[17] = system: Bacteroides fragilis L 01; experiment: in vitro antibacterial activity (MIC); assay type: cell-based; settings: L01
[18] = system: Pseudomonas aeruginosa K 799/61; experiment: in vitro antibacterial activity (MIC); assay type: cell-based; settings: K799/61
[19] = system: Clostridium perfringens 194; experiment: microbe, parasite or virus in culture; assay type: cell-based
[20] = system: Escherichia coli DC 2; experiment: in vitro antibacterial activity (MIC); assay type: cell-based; settings: DC2
Source text: as §1
(§3) For example, in vitro, sodium (5R,6S)-2-[3-(1-methyltetrazol-5-ylthio)-propyl]-6-hydroxymethyl-2-penem-3-carboxylate (compound 1) and sodium (5R,6S)-2-[3-(1-dimethylaminoethyltetrazol-5-ylthio)-propyl]-6-hydroxymethyl-2-penem-3-carboxylate (compound 2) and sodium (5R,6S)-2-[3-(1-methyltetrazol-5-ylthio)-ethyl-6-hydroxymethyl-2-penem-3-carboxylate (compound 3), have the following activity: […]

[21] = system: Escherichia coli UB 1005; experiment: in vitro antibacterial activity (MIC); assay type: cell-based; settings: UB1005
Source text: as §1, §3

[22] = system: Streptococcus pneumoniae III/84; experiment: in vitro antibacterial activity (MIC); assay type: cell-based
[23] = system: Enterobacter cloacae P 99; experiment: in vitro antibacterial activity (MIC); assay type: cell-based; settings: P99
[24] = system: Enterobacter cloacae ATCC 13047; experiment: in vitro antibacterial activity (MIC); assay type: cell-based; settings: ATCC13047
[25] = system: Haemophilus influenzae NCTC 4560; experiment: in vitro antibacterial activity (MIC); assay type: cell-based; settings: NCTC4560
[26] = system: Staphylococcus aureus 10 B; experiment: in vitro antibacterial activity (MIC); assay type: cell-based
[27] = system: Escherichia coli 205; experiment: in vitro antibacterial activity (MIC); assay type: cell-based
[28] = system: Neisseria gonorrhoeae 1317-4; experiment: in vitro antibacterial activity (MIC); assay type: cell-based; settings: 13174
[29] = system: Neisseria meningitidis 1316; experiment: in vitro antibacterial activity (MIC); assay type: cell-based
[30] = system: Staphylococcus aureus A 124; experiment: in vitro antibacterial activity (MIC); assay type: cell-based; settings: A124
Source text: as §1, §3

[31] = system: Escherichia coli 2018; experiment: in vitro antibacterial activity (MIC); assay type: cell-based
Source text: as §1, §3

[32] = system: Staphylococcus aureus Wood 46; experiment: in vitro antibacterial activity (MIC); assay type: cell-based; settings: WOOD46
Source text: as §1, §3

[33] = system: Escherichia coli B-1385; experiment: in vitro antibacterial activity (MIC); assay type: cell-based; settings: B1385
Source text: as §1, §3

Compound `Cn1nnnc1SCCCC1=C(C(=O)[O-])N2C(=O)[C@H](CO)[C@H]2S1.[Na+]` [Compound 1, sodium (5R,6S)-2-[3-(1-methyltetrazol-5-ylthio)-propyl]-6-hydroxymethyl-2-penem-3-carboxylate] has an MIC [1] of 0.05 µg/mL, an MIC [2] of 16 µg/mL and an MIC [3] of 64 µg/mL. For the same compound, the MIC [4] was 16 µg/mL, the MIC [5] was 4 µg/mL and the MIC [6] was 4 µg/mL. For the same compound, the ED50 ([7]; po) was about 30 mg/kg, the ED50 ([7]; sc) was 8.5 mg/kg and the ED50 ([8]; Escherichia coli, 2018, po, p.o.) was 90 mg/kg. The ED50 ([8]; Escherichia coli, 2018, sc, s.c.) was 30 to 100 mg/kg, the ED50 ([9]; po) was 90 mg/kg and the ED50 ([9]; sc) was 60 mg/kg. For the same compound, the MIC [10] was 0.1 µg/mL, the MIC [11] was over 128 µg/mL and the MIC [12] was 4 µg/mL. The MIC [13] was 4 µg/mL, the MIC [14] was 8 µg/mL and the MIC [15] was 2 µg/mL. The MIC [16] was 2 µg/mL, the MIC [17] was 0.5 µg/mL and the MIC [18] was 2 µg/mL. The MIC [19] was 0.02 µg/mL, the MIC [20] was 2 µg/mL and the MIC [21] was 4 µg/mL. It also gave an MIC [22] of 0.02 µg/mL, an MIC [23] of 32 µg/mL and an MIC [24] of 64 µg/mL. For the same compound, the MIC [25] was 0.5 µg/mL, the MIC [26] was 0.05 µg/mL and the MIC [27] was 2 µg/mL.

In the case of `Cn1nnnc1SCCC1=C(C(=O)[O-])N2C(=O)[C@H](CO)[C@H]2S1.[Na+]` [Compound 3, Sodium (5R,6S)-2-[2-(1-Methyltetrazol-5-ylthio)-ethyl]-6-hydroxymethyl-2-penem-3-carboxylate], the MIC [1] is reported as 0.05 µg/mL, the MIC [2] is reported as 16 µg/mL and the MIC [3] is reported as 32 µg/mL. The MIC [4] was 4 µg/mL, the MIC [5] was 2 µg/mL and the MIC [28] was 0.01 µg/mL. For the same compound, the MIC [6] was 4 µg/mL, the ED50 ([7]; po) was 30 mg/kg and the ED50 ([7]; sc) was 12 mg/kg. For the same compound, the MIC [29] was 0.02 µg/mL, the MIC [10] was 0.1 µg/mL and the MIC [11] was over 128 µg/mL. For the same compound, the MIC [12] was 2 µg/mL, the MIC [13] was 4 µg/mL and the MIC [14] was 4 µg/mL. For the same compound, the MIC [15] was 2 µg/mL, the MIC [16] was 2 µg/mL and the MIC [17] was 0.2 µg/mL. The MIC [18] was 1 µg/mL, the MIC [19] was 0.1 µg/mL and the MIC [30] was 0.5 µg/mL. It also gave an MIC [20] of 2 µg/mL, an MIC [31] of 0.5 µg/mL and an MIC [32] of 0.05 µg/mL. For the same compound, the MIC [21] was 2 µg/mL, the MIC [33] was 2 µg/mL and the MIC [22] was 0.02 µg/mL. The MIC [23] was 16 µg/mL, the MIC [24] was 32 µg/mL and the MIC [25] was 2 µg/mL. It also gave an MIC [26] of 0.05 µg/mL and an MIC [27] of 1 µg/mL.
